This experiment concerns the target T1, PAF receptor (Homo sapiens, UniProt P25105).
T1 construct: tissue Lifesource, Inc. (Glenview, Ill.); host or cells: human packed platelets (washed, freeze-thawed membrane preparation)
Briefly: Inhibition of the Specific Binding of [^3 H]PAF to Human Platelet Membrane Preparation. Particulars: 0.75 nM [^3 H]PAF, 30 minutes at 24° C., pH 7.4. The method, then:
Inhibition of the Specific Binding of [^3 H]PAF to Human Platelet Membrane Preparation.
Human packed platelets were obtained from Lifesource, Inc. (Glenview, Ill.) and washed 3 times with 10 mM Trizma pH 7.0, 2 mM EDTA (dipotassium salt), 150 mM KCl and then once with 10 mM Trizma 7.4, 20 mM CaCl2. The platelets were broken by freezing in a dry ice-ethanol bath, followed by thawing in 24° C. water baths. The preparation was centrifugation (40,000×g, 20 minutes, 4' C) and the pellet resuspended in 10 mM Trizma 7.4, 20 mM CaCl2, 5 mg/ml human albumin. Protein concentration in the platelet membrane preparation was determined by the Lowry method [O.H. Lowry et al. J. Biological Chemistry, 193, 265-275 (1951)]. Aliquots of the membrane preparation were stored at -70° C. Each preparation was characterized for PAF receptor number and dissociation constant (Kd). In binding assays 5 μl of test compound, solubilized in DMSO, was added to polypropylene tubes along with 0.75 nM [^ 3 H]PAF and 200 mcl [0.075 nM] of membranes and 95 μl 10 mM Trizma 7.4, […], 5 mg/ml human albumin. Tubes were incubated for 30 minutes at 24° C. […] Filters were prepared and counted for a scintillation counter. […] The IC50 values were determined by the Allfit program using percent displacement data. […]

The structures appear in SMILES notation.

T1 sequence (P25105 whole entry): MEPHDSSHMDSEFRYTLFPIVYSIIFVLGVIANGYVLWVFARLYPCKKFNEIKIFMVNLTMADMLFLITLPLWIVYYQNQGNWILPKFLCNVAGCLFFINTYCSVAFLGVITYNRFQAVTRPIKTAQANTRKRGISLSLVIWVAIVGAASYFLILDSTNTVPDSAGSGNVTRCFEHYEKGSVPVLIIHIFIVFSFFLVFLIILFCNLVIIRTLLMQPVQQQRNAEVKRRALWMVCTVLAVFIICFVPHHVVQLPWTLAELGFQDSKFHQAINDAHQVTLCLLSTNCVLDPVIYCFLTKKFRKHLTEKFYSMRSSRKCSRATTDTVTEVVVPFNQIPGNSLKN

Molecule `COc1cc(C(=O)N(C(C)C)C2CCCCC2)ccc1Cn1ccc2ncnc-2c1-c1ccccc1` [Compound 9, N-cyclohexyl-3-methoxy-N-(1-methylethyl)-4-[(4-phenyl-5H-imidazo[4,5-c]pyridin-5-yl)methyl]benzamide] displayed an IC50 of 1040 nM.

One may read the IC50 as the concentration that inhibits the measured activity by half. Low values mean greater potency, high ones weaker potency.

Values taken from US5208242A, “5-substituted-4-phenyl-5H-imidazo[4,5-c]pyridine derivatives” (G. D. Searle & Co., priority 1992, dated 1993).
